Eleven compounds from US4826814A, “Tripeptide derivatives” (Dainippon Pharmaceutical Co., Ltd., priority 1986, dated 1989) can be followed below.

SMILES strings stand for the structures.

The first assay has as its system renal hypertensive rats. Put plainly: Antihypertensive activity after single oral administration in two-kidney Goldblatt type renal hypertensive rats (tail-cuff blood pressure). Particulars: blood pressure, renal hypertensive rats, single oral administration, dose of 10 mg/kg, 9 hours. Type of assay: in vivo, rat. The source says:
Male Sprague Dawley rats (5 weeks old) were subjected to constriction of the left renal artery with a silver clip (internal diameter: 0.22 mm) under light ether anesthesia. The right kidney and renal artery were left intact. About 6-10 weeks after clipping, rats showing a blood pressure above 180 mmHg were used. These treated rats are named two-kidney Goldblatt type renal hypertensive rats and considered as a typical model of reninangiotensin dependent hypertension.
The blood pressure was measured by a tail-cuff method using a programmed electro-sphygmomanometer (PE-300, Narco Biosystem, U. S. A.) after warming at 38° C. for 10 minutes in heating box.
The antihypertensive activity of test compounds was evaluated after single oral administration in renal hypertensive rats (3-5 rats/group).
Consider `NCCCC[C@H](NC(=O)c1ccncc1)C(=O)N[C@H](CCC(=O)N1[C@H](C(=O)O)C[C@@H]2CCCC[C@@H]21)C(=O)O` [Example 29, (2S,3aS,7aS)-1-(N^2 -Isonicotinoyl-L-lysyl-gamma-D-glutamyl)octoahydro-1H-indole-2-carboxylic acid], for which the “Charge in pressure at 9 hours administration” value (“Charge in pressure” below) is -38.

Consider `NCCCC[C@H](NC(=O)OCCc1ccccn1)C(=O)N[C@H](CCC(=O)N1c2ccccc2C[C@H]1C(=O)O)C(=O)O` [Example 38, 1-[N^2-(2-Pyridineethoxycarbonyl)-L-lysyl-gamma-D-glutamyl]indoline-2(S)-carboxylic acid], for which the “Charge in pressure” value is -27.

Regarding `NCCC[S+]([O-])C[C@H](NC(=O)OCc1ccccc1)C(=O)N[C@H](CCC(=O)N1[C@H](C(=O)O)C[C@@H]2CCCC[C@@H]21)C(=O)O` (stereo partly drawn) [Example 76, (2S,3aS,7aS)-1-[N-Benzyloxycarbonyl-S-(3-aminopropyl)-L-cysteinyl-gamma-D-glutamyl]octahydro-1H-indole-2-carboxylic acid sulfoxide], the “Charge in pressure” value is on record as -31.

As for `NCCCC[C@H](NC(=O)OC1CCCC1)C(=O)N[C@H](CCC(=O)N1[C@H](C(=O)O)C[C@@H]2CCCC[C@@H]21)C(=O)O` [Example 30, (2S,3aS,7aS)-1-(N^2 -Cyclopentyloxycarbonyl-L-lysyl-gamma-D-glytamyl)octahydro-1H-indole-2-carboxylic acid], the “Charge in pressure” value is -38.

The next assay has as its target T1, ACE preparation (rabbit lung) (Oryctolagus cuniculus, UniProt P12822).
T1 construct: an ACE preparation (rabbit lung); from tissue; host or cells: rabbit lung
T1 sequence (P12822 34-1310): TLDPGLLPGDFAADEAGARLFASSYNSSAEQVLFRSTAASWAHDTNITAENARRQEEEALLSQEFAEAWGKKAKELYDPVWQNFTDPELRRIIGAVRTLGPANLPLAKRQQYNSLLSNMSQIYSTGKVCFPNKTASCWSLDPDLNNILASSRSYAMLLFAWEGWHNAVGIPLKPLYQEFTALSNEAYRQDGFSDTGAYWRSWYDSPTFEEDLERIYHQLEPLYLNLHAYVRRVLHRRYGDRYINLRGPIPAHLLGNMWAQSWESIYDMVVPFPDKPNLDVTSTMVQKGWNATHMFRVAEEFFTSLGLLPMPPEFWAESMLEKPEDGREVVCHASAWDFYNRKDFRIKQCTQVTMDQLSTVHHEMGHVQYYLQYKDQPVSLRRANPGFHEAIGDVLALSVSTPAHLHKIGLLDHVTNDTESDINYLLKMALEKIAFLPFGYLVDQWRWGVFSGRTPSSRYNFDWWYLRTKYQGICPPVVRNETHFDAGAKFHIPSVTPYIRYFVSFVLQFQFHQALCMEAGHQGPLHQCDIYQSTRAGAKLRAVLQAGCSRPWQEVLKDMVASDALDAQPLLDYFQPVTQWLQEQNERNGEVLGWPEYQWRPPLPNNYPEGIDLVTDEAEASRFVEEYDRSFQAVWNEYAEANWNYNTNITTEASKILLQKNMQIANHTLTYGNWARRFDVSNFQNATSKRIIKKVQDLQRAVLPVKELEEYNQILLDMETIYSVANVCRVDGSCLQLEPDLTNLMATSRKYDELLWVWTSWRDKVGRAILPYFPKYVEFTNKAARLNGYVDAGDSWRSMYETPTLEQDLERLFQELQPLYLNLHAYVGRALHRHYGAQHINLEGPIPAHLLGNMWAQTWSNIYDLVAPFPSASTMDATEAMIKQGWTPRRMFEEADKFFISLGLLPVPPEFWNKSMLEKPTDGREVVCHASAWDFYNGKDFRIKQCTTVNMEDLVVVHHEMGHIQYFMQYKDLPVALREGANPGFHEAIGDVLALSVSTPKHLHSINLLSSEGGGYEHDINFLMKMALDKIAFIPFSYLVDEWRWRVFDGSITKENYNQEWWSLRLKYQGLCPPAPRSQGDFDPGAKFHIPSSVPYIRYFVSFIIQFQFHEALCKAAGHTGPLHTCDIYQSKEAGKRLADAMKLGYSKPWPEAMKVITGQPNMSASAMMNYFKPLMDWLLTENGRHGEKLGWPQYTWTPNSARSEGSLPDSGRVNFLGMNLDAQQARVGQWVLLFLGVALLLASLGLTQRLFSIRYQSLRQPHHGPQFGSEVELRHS
Put plainly: In vitro ACE inhibitory activity (hippuryl-L-histidyl-L-leucine substrate). Particulars: 37° C., 30 minutes, pH 8.3. The class given is biochemical. The method, then: The assay medium contained an ACE preparation (rabbit lung), synthetic substrate (hippuryl-L-histidyl-L-leucine 5 mM), NaCl (300 mM) and phosphate buffer (100 mM, pH 8.3). It was mixed to a final volume of 0.300 ml and incubated at 37° C. for 30 minutes in the presence or absence of test compounds. After the reaction was terminated by adding 300 μl of 1N HCl, hippuric acid formed was extracted with 2 volume of ethyl acetate. After ethyl acetate was evaporated and distilled water was added, the hippuric acid was determined from its absorbance at 228 nm by spectrophotometer (Hitachi 100-41).
The degree of ACE inhibition was calculated from activities with and without test compounds. The IC50 value (molar concentration required for the 50% inhibition of ACE activity) was obtained from a dose-inhibition curve.
As to `NCCCC[C@H](NC(=O)OC1CCC1)C(=O)N[C@H](CCC(=O)N1[C@H](C(=O)O)C[C@@H]2CCCC[C@@H]21)C(=O)O` [Example 32, (2S,3aS,7aS)-1-[N^2-(Cyclobutyloxycarbonyl)-L-lysyl-gamma-D-glutamyl]octahydro-1H-indole-2-carboxylic acid], the IC50 was found to be 4.6 nM.

The compound `NCCCC[C@H](NC(=O)c1cnc2ccccc2c1)C(=O)N[C@H](CCC(=O)N1[C@H](C(=O)O)C[C@@H]2CCCC[C@@H]21)C(=O)O` [Example 53, (2S,3aS,7aS)-1-[N^2-(3-Quinolinecarbonyl)-L-lysyl-gamma-D-glutamyl]octahydro-1H-indole-2-carboxylic acid] yielded an IC50 of 4.6 nM.

`NCCCC[C@H](NC(=O)c1ccccc1)C(=O)N[C@H](CCC(=O)N1c2ccccc2C[C@H]1C(=O)O)C(=O)O` [Example 39, 1-(N^2 -Benzoyl-L-lysyl-gamma-D-glutamyl)indoline-2(S)-carboxylic acid]: inhibition was half-maximal at 11 nM (IC50).

Take `NCCCC[C@H](NC(=O)[C@@H]1Cc2ccccc2N1)C(=O)N[C@H](CCC(=O)N1[C@H](C(=O)O)C[C@@H]2CCCC[C@@H]21)C(=O)O` [Example 56, (2S,3aS,7aS)-1-[N^2-(Indoline-2(S)-carbonyl)-L-lysyl-gamma-D-glutamyl]octahydro-1H-indole-2-carboxylic acid]: inhibition was half-maximal at 8.2 nM (IC50).

`NCCCC[C@H](NC(=O)OC1CCCCC1)C(=O)N[C@H](CCC(=O)N1[C@H](C(=O)O)C[C@@H]2CCCC[C@@H]21)C(=O)O` [Example 31, (2S,3aS,7aS)-1-(N^2 -Cyclohexyloxycarbonyl-L-lysyl-gamma-D-glutamyl)octahydro-1H-indole-2-carboxylic acid]: the IC50 worked out at 5 nM.

In turn, `NCCCC[C@H](NC(=O)OCc1ccc2c(c1)OCO2)C(=O)N[C@H](CCC(=O)N1c2ccccc2C[C@H]1C(=O)O)C(=O)O` [Example 74, 1-[N^2-(3,4-Methylenedioxybenzyloxycarbonyl)-L-lysyl-gamma-D-glutamyl]indoline-2(S)-carboxylic acid] gave an IC50 of 6.6 nM.

Consider `NCCCC[C@H](NC(=O)OCCC1CCCCC1)C(=O)N[C@H](CCC(=O)N1c2ccccc2C[C@H]1C(=O)O)C(=O)O` [Example 34, 1-(N^2 -Cyclohexylethoxycarbonyl-L-lysyl-gamma-D-glutamyl)indoline-2(S)-carboxylic acid], for which it took 8 nM to reach half-maximal inhibition (IC50).
